Source: patent US9980937B2, “Therapeutic agent for Alzheimer's disease” (NAGASAKI UNIVERSITY, priority 2014, dated 2018)

Tests used:
[1] = test system: neprilysin; experiment: neprilysin-dependent neutral endopeptidase activity of APP-H4 cell extract (suc-AAF-AMC coupled enzyme assay); assay type: cell-based, human; conditions: APP-H4 cells, 48 hr, 1 or 10 μM; activity without polyphenol derivative = 1 (FIG. 1)
Description: (§1) APP-H4 cells were seeded to a 6-well plate at a density of 12×10^4 cells/1.5 mL, and cultured in Dulbecco's modified Eagle's medium (DMEM; Nacalai Tesque, Inc.) added with 10% fetal bovine serum (FBS; Equitech-Bio, Inc. [Kerrville, Tex., USA]), 100 U/mL penicillin+100 μg/mL streptomycin (Nacalai Tesque, Inc.). After culture for 24 hr, the culture supernatant was removed, and the medium was exchanged with a medium with reduced use amount of serum, Opti-MEM (registered trade mark) I Reduced Serum Medium (Life Technologies Corporation, Carlsbad, Calif., USA) (1 mL). A polyphenol derivative (1 μL) to be the test target was added, and the mixture was further cultured for 48 hr. After culture, the culture supernatant was recovered in a tube (total amount 1.5 mL), centrifuged at 4,000×g/4° C./10 min to remove dead cells, and the supernatant (800 μL) was placed in a new tube. The culture supernatant was preserved at −80° C. before sample preparation. The cells were washed twice with ice-cooled phosphate-buffered saline (PBS). Thereafter, the cells were scraped from the plate using a Cell Scraper. The cells were recovered in a 1.5 mL tube and centrifuged at 4,000×g/4° C./10 min. The supernatant was removed and the cells were preserved at −80° C. before sample preparation. The frozen cells were lysed in 40 μL of solubilization buffer containing 1% Triton X-100, protease inhibitor cocktail Complete™ EDTA-free (Roche) and 50 mM Tris-HCl on ice. The cell lysate was incubated on ice for 60 min, centrifuged at 4° C., 21,900×g for 30 min, and the supernatant was recovered and used as a solubilization cell extract.
The total protein concentration of the cell extract was determined by a BCA protein assay kit (Takara) by using BSA as the standard solution. The final concentration of the test compound used was 1 μM or 10 μM, and quantification was performed using each solvent as a control.
The neprilysin-dependent neutral endopeptidase activity of the cell extract was measured fluorescence quantitatively by an indirect coupled enzyme assay method. […] Total 50 μL of the reaction mixture was prepared such that the final concentration was substrate 0.1 mM suc-AAF-AMC, protein in the cell extract 1-6 μg, 100 mM MES buffer (pH 6.5). With the time of addition of the substrate as the start of the reaction, the mixture was reacted at 37° C. for 1 hr, and Phe-AMC was cut out from the substrate by neutral endopeptidase. […] The mixture was reacted at 37° C. for 30 min, and Phe (phenylalanine) residue was cut out from Phe-AMC by aminopeptidase.

[2] = coefficient of partition for octanol, in accordance with Fudouji et al. 2009; cited from earlier work
[3] = test system: ADAM17; experiment: α-secretase mRNA expression, ADAM17 (real-time PCR); assay type: cell-based, human; conditions: control = 1
Description: (§2) In the same manner as in the above-mentioned 2, total RNA was prepared using a High Pure RNA Isolation kit (Roche 11828665001) from the cells to be the test target cells, which were treated with each polyphenol derivative and cultured, and subjected to a reverse transcription reaction using PrimeScript RT-PCR kit (TaKaRaRR014A) to give a sample (cDNA) for real-time PCR.
(§3) The prepared sample, Premix Ex taq (Perfect Real Time) (TaKaRaRR039A) and a probe, and a primer were mixed in a tube (TaKaRa SC910A), and real-time PCR reaction (initial denaturation: 95° C. 30 sec, PCR reaction: 95° C. 5 sec, 60° C. 20 sec, 40 times) was performed by Smart Cycler II System machine (TaKaRa).
(§4) The 5′-terminus of the probe was modified by a fluorescent substance FAM, and the 3′-terminus was modified by a quencher substance TAMRA, respectively.

[4] = test system: APP; experiment: extracellularly secreted APPsα/APPsβ ratio (western blot); assay type: cell-based, human; conditions: APP-H4 culture supernatant (FIG. 2)
Description: as §1
(§5) After thawing from −80° C., the aforementioned culture supernatant was mixed with 6×SDS-polyacrylamide gel electrophoresis (SDS-PAGE) sample buffer (Nacalai Tesque, Inc.) at a ratio of 5:1, boiled for 5 min, and used as a detection sample of APPsα which is a metabolite of APP by α-secretase and APPsβ which is a metabolite of APP by β-secretase in western blot analysis.
The PVDF membrane after transfer was washed with a wash buffer and immersed in a blocking buffer to prevent non-specific binding of the primary antibody, and a blocking reaction was performed at room temperature for 1 hr. Thereafter, it was reacted with a primary antibody (APPsα, anti-human APPsα mouse monoclonal antibody (2B3, Immuno-Biological Laboratories Co., Ltd., Gunma, Japan) (3 μg/mL); APPsβ, anti-APPsβ, rabbit polyclonal antibody, 1 μg/mL) to perform an antigen-antibody-reaction at 4° C. for not less than 16 hr. […]
(§6) The signal intensity of the band was quantified using a densitometer LAS-4000 (GE Healthcare UK Ltd.) and image analysis software Science Laboratory 2003 Image Gauge Version 4.23 (Fujifilm Holdings Corporation, Tokyo, Japan). […]

[5] = biological target: T1, β-secretase (Homo sapiens, UniProt P56817); experiment: β-secretase activity (APPsβ, western blot); assay type: cell-based; conditions: APP-H4 culture supernatant, APPsβ (FIG. 2)
T1 construct: endogenous in cells; host or cells: APP-H4 cells (culture supernatant analysed)
Description: as §1, with “extract. […]” for “extract.”
as §6

[6] = test system: neprilysin; experiment: neprilysin expression amount at protein level (western blot, APP-H4 cells); assay type: cell-based, human; conditions: 48 hr, standardized to β-actin (FIG. 2)
Description: as §1
The aforementioned cell extract was mixed with 6×SDS-polyacrylamide gel electrophoresis (SDS-PAGE) sample buffer (Nacalai Tesque, Inc.) at a ratio of 5:1, boiled for 5 min, and used as a detection sample of neprilysin, α-secretase and β-secretase proteins.
The PVDF membrane after transfer was washed with a wash buffer and immersed in a blocking buffer to prevent non-specific binding of the primary antibody, and a blocking reaction was performed at room temperature for 1 hr. […] The PVDF membrane after the reaction was washed with the wash buffer and the secondary antibody (horseradish peroxidase conjugated anti-mouse or anti-rabbit IgG (1:10,000; GE Healthcare UK Ltd.)) corresponding to the primary antibody was reacted at room temperature for 1 hr and detection was carried out using the ECL Select Western Blotting Detection Kit (GE Healthcare UK Ltd.).
The signal intensity of the band was quantified using a densitometer LAS-4000 (GE Healthcare UK Ltd.) and image analysis software Science Laboratory 2003 Image Gauge Version 4.23 (Fujifilm Holdings Corporation, Tokyo, Japan).

[7] = test system: neprilysin mRNA (MME gene); experiment: neprilysin mRNA expression (quantitative real-time PCR, MME gene); assay type: cell-based, human; conditions: standardized to GAPDH mRNA (FIG. 3)
Description: as §2, §3, §4

[8] = test system: neprilysin, α-secretase, β-secretase; experiment: overall conclusion on modulation of neprilysin, α-secretase and β-secretase (Example 1); assay type: cell-based, human; conditions: conclusion from the results of Example 1
Description: as §1
The neprilysin-dependent neutral endopeptidase activity of the cell extract was measured fluorescence quantitatively by an indirect coupled enzyme assay method. As a neutral endopeptidase substrate, succinyl-Ala-Ala-Phe-7-amino-4-methylcoumarin (suc-AAF-AMC) (1-1315; Bachem) was used. Total 50 μL of the reaction mixture was prepared such that the final concentration was substrate 0.1 mM suc-AAF-AMC, protein in the cell extract 1-6 μg, 100 mM MES buffer (pH 6.5). With the time of addition of the substrate as the start of the reaction, the mixture was reacted at 37° C. for 1 hr, and Phe-AMC was cut out from the substrate by neutral endopeptidase. Then, to the reaction mixture was added a solution (2.5 μL) containing 0.1 mg (0.4 unit equivalent)/mL leucine aminopeptidase (L-5006; Sigma-Aldrich), and 0.2 mM phosphoramidon (4082; Peptide Institute). The mixture was reacted at 37° C. for 30 min, and Phe (phenylalanine) residue was cut out from Phe-AMC by aminopeptidase. Using microplate spectrometer Infinite M-1000 (Tecan), the fluorescence intensity of free AMC was measured by measuring at an excitation wavelength 390 nm and a fluorescence wavelength 460 nm on a half-well size 96-well black plate (#3695; Corning). The neprilysin-dependent neutral endopeptidase activity was determined based on a decrease in the activity due to 10 μM thiorphan (T-6031; Sigma-Aldrich) as a neprilysin specific inhibitor.
as §5, with “analysis. […]” for “analysis.”

T1 sequence (P56817 46-501): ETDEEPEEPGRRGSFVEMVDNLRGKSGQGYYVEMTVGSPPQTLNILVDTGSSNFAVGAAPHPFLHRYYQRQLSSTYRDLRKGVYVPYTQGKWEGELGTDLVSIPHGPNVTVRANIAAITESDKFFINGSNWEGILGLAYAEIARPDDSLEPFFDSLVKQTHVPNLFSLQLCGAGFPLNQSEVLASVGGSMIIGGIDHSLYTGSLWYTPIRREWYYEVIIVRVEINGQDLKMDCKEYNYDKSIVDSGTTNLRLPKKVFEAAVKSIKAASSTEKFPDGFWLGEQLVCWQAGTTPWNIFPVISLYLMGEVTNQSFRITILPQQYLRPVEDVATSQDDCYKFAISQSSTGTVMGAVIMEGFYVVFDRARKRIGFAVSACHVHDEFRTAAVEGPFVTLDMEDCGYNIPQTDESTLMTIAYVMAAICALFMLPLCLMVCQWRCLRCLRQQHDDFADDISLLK

For `O=c1cc(-c2ccc(O)cc2)oc2cc(O)cc(O)c12` [Apigenin], the “neprilysin activity potentiating action” value [1] was “about 1.5 times that of control”.
In the case of `O=c1cc(-c2ccccc2)oc2cc(O)c(O)c(O)c12` [Baicalein], the “neprilysin activity potentiating action” value [1] is reported as “about 1.7 times that of control”.
With `O=c1cc(-c2ccccc2)oc2cc(O)cc(O)c12` [Chrysin] the “neprilysin activity potentiating action” value [1] was “about 1.4 times that of control”.
For `O=C(O[C@@H]1Cc2c(O)cc(O)cc2O[C@@H]1c1cc(O)c(O)c(O)c1)c1cc(O)c(O)c(O)c1` [EGCg, (−)-epigallocatechin-3-O-gallate, reference compound], the “neprilysin activity potentiating action” value [1] is listed as “about 1.5 times that of control” and the “log P octanol” value [2] is listed as 1.00.
With `C=CCc1ccc(O)c(-c2ccc(O)c(CC=C)c2)c1` [Honokiol] the “neprilysin activity potentiating action” value [1] was “about 1.3 times that of control”.
With `O=c1c(O)c(-c2ccc(O)cc2)oc2cc(O)cc(O)c12` [Kaempferol] the “neprilysin activity potentiating action” value [1] was “about 1.5 times that of control”.
In the case of `CC12CC[C@@H](C(C)(C)O)[C@H](C1)c1c(cc(O)c3c1O[C@H](c1cc(O)c(O)c(O)c1)[C@H](OC(=O)c1cc(O)c(O)c(O)c1)C3)O2` [NUP-6], the “log P octanol” value [2] is given as 1.85.
In the case of `CC1CCC2C(C1)c1c(c3c(c4c1OC(C)(C)C1CCC(C)CC41)O[C@H](c1cc(O)c(O)c(O)c1)[C@H](OC(=O)c1cc(O)c(O)c(O)c1)C3)OC2(C)C` (some centres unmarked) [NUP-11], the “ADAM17 expression at the mRNA level” value [3] is reported as “about 2.4 times that of control”, the “extracellularly secreted APPsα/APPsβ ratio” value [4] is reported as “about 2.0 times that of control” and the “β-secretase activity, remaining relative to control” value [5] is reported as “about 41 % that of control”. For the same compound, the “expression amount of neprilysin at the protein level” value [6] was “about 3.3 times that of control”, the “expression level of neprilysin at the mRNA level” value (“expression level of neprilysin” for short) [7] was “about 4 times that of control” and the “neprilysin activity potentiating action” value [1] was “about 3.5 times that of control”. For the same compound, the “log P octanol” value [2] was over 10 and the “modulator class (neprilysin / α-secretase / β-secretase)” value [8] was “double modulator”.
For `C/C(=C\Cc1c(O)cc2c(c1O)C[C@@H](OC(=O)c1cc(O)c(O)c(O)c1)[C@@H](c1cc(O)c(O)c(O)c1)O2)CCCC(C)CCCC(C)CCCC(C)C` (some centres unmarked) [NUP-19], the “ADAM17 expression at the mRNA level” value [3] was “about 1.3 times that of control”, the “extracellularly secreted APPsα/APPsβ ratio” value [4] was “about 1.4 times that of control” and the “β-secretase activity, remaining relative to control” value [5] was “about 37 % that of control”. For the same compound, the “expression amount of neprilysin at the protein level” value [6] was “about 3.2 times that of control”, the “expression level of neprilysin” value [7] was “about 2.1 times that of control” and the “neprilysin activity potentiating action” value [1] was “about 2.7 times that of control”. For the same compound, the “log P octanol” value [2] was over 10 and the “modulator class (neprilysin / α-secretase / β-secretase)” value [8] was “double modulator”.
For `O=C(O)CCCCCCCCCCCCCCOC1CCc2c(c3c(c4c2O[C@H](c2cc(O)c(O)c(O)c2)[C@H](OC(=O)c2cc(O)c(O)c(O)c2)C4)OC(OCCCCCCCCCCCCCCC(=O)O)CC3)O1` (some centres unmarked) [NUP-E15-2], the “ADAM17 expression at the mRNA level” value [3] was “about 3.7 times that of control”, the “expression level of neprilysin” value [7] was “about 7.9 times that of control” and the “neprilysin activity potentiating action” value [1] was “about 1.5 times that of control”. For the same compound, the “modulator class (neprilysin / α-secretase / β-secretase)” value [8] was “triple modulator”.
In the case of Amentoflavone, the “neprilysin activity potentiating action” value [1] is reported as “about 2 times that of control”.
